Data published in patent US20200299328A1, “POLYPEPTIDE WITH FUNCTION OF INHIBITING ABETA 42 PROTEIN AGGREGATION AND USE THEREOF, AND GENE ENCODING THE POLYPEPTIDE” (SOUTH CHINA UNIVERSITY OF TECHNOLOGY, priority 2018, published 2020).

System: Aβ42 protein aggregation in HEK-293-Aβ42-mCherry cells
Experiment: Activity experiment of inhibiting Aβ42 protein aggregation in vitro (IncuCyte Zoom live cell imaging, tetracycline induction)
Assay type: cell-based
Details: compared with model group, 72 hours after tetracycline, p<0.01 (FIG. 5)
From the text: In the specific embodiments, in an application process of the polypeptide with the function of inhibiting Aβ42 protein aggregation according to the present invention, a mechanism of inhibiting AD senile plaque by the polypeptide is first researched through a visual in-vitro cell model test. Specifically, an amino acid sequence of a core component of senile plaque—an Aβ42 protein (the 22nd amino acid in a sequence of 42 amino acids—glutamic acid is mutated into glycine) is stably transferred into HEK-293 cells, so that it is stably expressed in the HEK-293 cells to form a cell model of abnormal Aβ protein aggregation, and then tetracycline is added to induce the Aβ protein to form a red fluorescent protein and emit red fluorescent light for positioning and quantifying the expression of the Aβ42 protein; and then, the polypeptide with the function of inhibiting Aβ42 protein aggregation according to the present invention is added, and a HEK293 cell model transfected with an Aβ42-red fluorescent labeling gene is used for evaluation, thus proving that the polypeptide has a remarkable activity of inhibiting Aβ42 protein aggregation. […]

Substance: Pro-Pro-Lys-Asn-Trp (PPLAT) [PW-5]
- Aβ42 protein aggregation rate (PW-5 high-dose group 0.5 mM, effect more significant than low-dose group): significantly reduced
- Aβ42 protein aggregation rate (PW-5 low-dose group 0.05 mM): significantly reduced
